Laboratory results taken from the supplement of paper PMC10933113.
Structures can show the parent of a compound that is named as a salt. ± gives the uncertainty stated by the source.

Columns and labels:
[1] = test system: THP-1; assay: efficacy of IL-8 induction relative to DMSO (% activity); higher = stronger induction; conditions: exposure time: 18 h
[2] = test system: KeratinoSens (HaCaT ARE-luciferase) cells; assay: efficacy of ARE luciferase induction relative to DMSO (% activity over DMSO); higher = stronger induction; conditions: exposure time: 24 h
[3] = test system: lysine peptide Ac-RFAAKAA-COOH; assay: efficacy of lysine peptide change (negative = depletion) (% activity); higher = less depletion; conditions: incubation time: 24 h
[4] = test system: cysteine peptide Ac-RFAACAA-COOH; assay: efficacy of cysteine peptide change (negative = depletion) (% activity); higher = less depletion; conditions: incubation time: 24 h
[5] = test system: KeratinoSens (HaCaT ARE-luciferase) cells; assay: cytotoxicity AC50 (CellTiter-Fluor viability); higher = less cytotoxic; conditions: exposure time: 24 h

Compound	efficacy of lysine peptide change [3]	efficacy of cysteine peptide change [4]	efficacy of IL-8 induction [1]	efficacy of ARE luciferase induction [2]	cytotoxicity AC50 [5]
CCOP(=S)(OCC)Oc1cnc2ccccc2n1 [Quinalphos]	10.6 ± 9.3	97.5 ± 350	7.62 ± 6.8	37.5 ± 24	
COc1ccc(O)c(C(C)(C)C)c1 [2-tert-Butyl-4-methoxyphenol]	5.8 ± 5	-37.3 ± 14	1.96 ± 3.4	4.91 ± 25	
O=[N+]([O-])c1cc([N+](=O)[O-])c2ccccc2c1 [1,3-Dinitronaphthalene]	-15.1 ± 14	-32.4 ± 17	0	29.3 ± 10	
CCC(C)(NC(=O)c1cc(Cl)c(C)c(Cl)c1)C(=O)CCl (stereo not given) [Zoxamide]	19.4 ± 7.3	-8.25 ± 7.4	84.9 ± 14	60.2 ± 4.2	41.4 ± 2.8 µM
Fc1ccc(Oc2ccnc3cc(Cl)cc(Cl)c23)cc1 [Quinoxyfen]	-7.82 ± 12	3.98 ± 6.9	25.9 ± 3.1	-5.76 ± 35	57 ± 12 µM
CC1=C(C(=O)Nc2ccccc2)S(=O)(=O)CCO1 [Oxycarboxin]			0	52.3 ± 47	32.9 ± 2.2 µM
O=C(O)c1cn(C2CC2)c2cc(N3CCNCC3)c(F)cc2c1=O [Ciprofloxacin]	-2.18 ± 19	8.17 ± 8.2	0	14.6 ± 25	
CCCCCCOc1ccc(O)cc1 [4-(Hexyloxy)phenol]			0.98 ± 10	20 ± 18	
CCCCCCCCCCC=CC1CC(=O)OC1=O (stereo not given) [3-(Dodecenyl)dihydro-2,5-furandione]	-22.7 ± 13	0	-1.83 ± 3.2	3.3 ± 5.7	
c1ccc(-c2cccc(-c3ccccc3)c2)cc1 [1,1':3',1''-Terphenyl]	7.59 ± 13	-4.8 ± 8.3	9.01 ± 8.6	21.9 ± 16	
CC(C)c1ccc2oc3nc(N)c(C(=O)O)cc3c(=O)c2c1 [Amlexanox]	7.32 ± 13	4.82 ± 8.3	8.52 ± 7.4	28.6 ± 29	
CC(C)(C)c1ccc(C(=O)CCCCl)cc1 [4'-Tert-butyl-4-chlorobutyrophenone]	17.7 ± 16	94.9	0	38.6 ± 9.4	
CCC(C)(CC)c1cc(NC(=O)c2c(OC)cccc2OC)on1 [Isoxaben]	47.2 ± 16	21.1 ± 6.2	2.21 ± 15	20.2 ± 5.5	
CC(=O)Oc1ccc(C(c2ccc(OC(C)=O)cc2)c2ccccn2)cc1 [Bisacodyl]	26.8 ± 7.9	3.97 ± 6.9	0	30.5 ± 18	
CC[C@H]1CC[C@H](NCc2cc3c(cc2OC)[C@H]2C[C@H]2C(=O)N3C)[C@H](c2ccccc2)N1			18.9 ± 3.4	82.8 ± 33	26.4 ± 4.7 µM
O=C(O)c1ccc(=O)[nH]c1 [6-Hydroxynicotinic acid]	-6.78 ± 17	12.2 ± 12	0	27.8 ± 30	
c1cc(OCC2CO2)cc(OCC2CO2)c1 (stereo not given) [Diglycidyl resorcinol ether (DGRE)]	46.9 ± 8.6	-8.5 ± 7.8	29.2 ± 11	74.5 ± 5.8	63.9 ± 12 µM
COP(=S)(OC)Oc1ccc(SC)c(C)c1 [Fenthion]	2.04 ± 28	0.74 ± 16	-2.61 ± 4.5	17.4 ± 5.5	
CC(=O)C1(C)CC2=C(CCCC2(C)C)CC1C (stereo not given)	3.3 ± 5.7	-16.5 ± 5.3	5.26 ± 9.1	13.2 ± 8.8	
CCCCCCCCCCCCO [1-Dodecanol]	-9.21 ± 17	0	0	9.49 ± 13	
CC(C)c1ccc2cc(C(C)C)ccc2c1 [2,6-Diisopropylnaphthalene]	1.65 ± 26	7.33 ± 6.5	2.46 ± 4.3	28.7 ± 11	
CCC(=O)C=Cc1ccc(OC)cc1 [1-(4-Methoxyphenyl)-1-pentene-3-one]	29.4 ± 1.8	-4.91 ± 8.5	0	-11.5 ± 51	

Compound	efficacy of lysine peptide change [3]	efficacy of cysteine peptide change [4]	efficacy of IL-8 induction [1]	efficacy of ARE luciferase induction [2]	cytotoxicity AC50 [5]
Nc1ccc(-c2ccccc2)cc1 [4-Biphenylamine hydrochloride]	-3.96 ± 11	-6.9 ± 6	0	12.3 ± 11	
CCCCCCC(C)O (stereo not given) [2-Octanol]	-5.58 ± 9.7	0	0	0	
CCCCCCCCCCCCOCCO [2-(Dodecyloxy)ethanol]	3.27 ± 16	73.8	-3.05 ± 5.3	8.82 ± 15	
CCc1cccc(CC)c1N(COC)C(=O)CCl [Alachlor]	64.4 ± 24	0	0	35.9 ± 29	48.5 ± 6.7 µM
COc1cc(Nc2c(C#N)cnc3cc(OCCCN4CCN(C)CC4)c(OC)cc23)c(Cl)cc1Cl [Bosutinib]	120 ± 29	32.5 ± 12	7.85 ± 7.5	-18.8 ± 8.1	12.6 µM
CC(C)C[C@H](NC(=O)[C@H](Cc1ccccc1)NC(=O)c1cnccn1)B(O)O [Bortezomib]	-35 ± 19	8.93 ± 9.3	504 ± 17	-42.8 ± 3.7	0.33 ± 0.02 µM
C=C(C)C(=O)Nc1ccc(Cl)c(Cl)c1 [Chloranocryl]	82.1 ± 16	4.33 ± 7.5	1.33 ± 7.2	23.2 ± 7	
CCOC(=O)NC(=S)Nc1ccccc1NC(=S)NC(=O)OCC [Thiophanate]	34.5 ± 10	-5.09 ± 4.7	3.6 ± 6.2	98.8 ± 100	
COc1ccc2[nH]cc(CCN(C(C)C)C(C)C)c2c1 [5-Methoxy-N,N-diisopropyltryptamine hydrochloride]	138 ± 57	-5.5 ± 9.5	1.45 ± 2.5	19.1 ± 7.6	
CC(C)(C)C(=O)CCl [1-Chloro-3,3-dimethyl-butan-2-one]	-4.45 ± 16	-43.1 ± 7.6	5.09 ± 4.6	26.8 ± 9.2	
CCCCOCCOCCOCCO [2-[2-(2-Butoxyethoxy)ethoxy]ethanol]	207 ± 33	37.2 ± 7.3	3.34 ± 5.8	75.4 ± 120	
Cc1ccc(N=C=O)cc1N=C=O [Toluene-2,4-diisocyanate]	-3.03 ± 21	-19.2 ± 5	33 ± 3.5	82.9 ± 38	
c1ccc(SCCSc2ccccc2)cc1 [1,2-Bis(phenylthio)ethane]	-9.19 ± 10	3.83 ± 6.6	0	40.6 ± 11	
CCNc1nc(NC(C)(C)C)nc(SC)n1 [Terbutryn]	139 ± 22	21.4 ± 20	4.42 ± 7.7	8.44 ± 7.8	
CCC(C)(c1ccc(O)cc1)c1ccc(O)cc1 [Bisphenol B]	31.9 ± 11	2.81 ± 4.9	9.18 ± 8.1	38.7 ± 21	
Nc1ccc(Cl)cc1Cl [2,4-Dichloroaniline]	6.42 ± 18	0	8.9 ± 7.7	3.01 ± 5.2	
NCCc1ccc(O)cc1 [Tyramine]	-1.41 ± 14	10.7 ± 18	0	17 ± 9	
Oc1ccc(-c2ccccc2)cc1Cl [2-Chloro-4-phenylphenol]	3.75 ± 3.3	0.73 ± 13	3.65 ± 6.3	22.4 ± 9.2	
c1ccc(-c2ccccn2)nc1 [2,2'-Dipyridyl]	-0.86 ± 12	-15.1 ± 3.5	0	45.2 ± 39	
CCc1oc2ccccc2c1C(=O)c1cc(I)c(O)c(I)c1 [Benziodarone]	-10.2 ± 9.7	-8.72 ± 7.7	0	17.7 ± 22	
CCCCCCCC(=O)Oc1c(Br)cc(C#N)cc1Br [Bromoxynil octanoate]	-17.8 ± 10	-2.83 ± 4.9	0	2.61 ± 12	

Continued, in another order:

efficacy of lysine peptide change [3]	efficacy of cysteine peptide change [4]	Compound	efficacy of IL-8 induction [1]	efficacy of ARE luciferase induction [2]	cytotoxicity AC50 [5]
21.8 ± 24	59.7 ± 11	COC(=O)CCCCCCCC(=O)OC [Dimethyl nonanedioate]	0	10.6 ± 13	
2.82 ± 10	47 ± 2.6	CCOC(=O)CCC(=O)OCC [Diethyl butanedioate]	3.24 ± 5.6	24.9 ± 23	
-6.29 ± 6.4	0	CCCCCCCCN [n-Octylamine]	0	47.1 ± 74	
93.9 ± 56	40.2 ± 6.4	O=C(O)c1cccnc1Nc1cccc(C(F)(F)F)c1 [Niflumic acid]	0	59.7 ± 37	
10.7 ± 13	9.93 ± 10	O=C(Oc1ccccc1)c1ccccc1O [Phenyl salicylate]	0	8.07 ± 11	
114 ± 27	58.9 ± 18	C[n+]1cc2c3c(ccc2c2ccc4cc5c(cc4c21)OCO5)OCO3 [Sanguinarine]	59.1 ± 21	-34.7 ± 1.6	7.37 ± 0.5 µM
4.84 ± 8.4	0	COP(=O)(O)OP(=O)(O)OC [Dimethyl dihydrogen diphosphate]	0	22.1 ± 30	
34.2 ± 19	0.29 ± 11	CC(=O)Oc1ccc(C2(c3ccc(OC(C)=O)cc3)C(=O)Nc3ccccc32)cc1 [Oxyphenisatin acetate]	0	49 ± 42	
-0.75 ± 9.8	-58.5 ± 10	CNC(=S)NN [N-Methylhydrazinecarbothioamide]	91.8 ± 17	-12.3 ± 42	22.5 ± 2.6 µM
64.1 ± 7.7	-4.4 ± 7.6	CCCCCOc1ccccc1/C(=C\SC)n1ccnc1 [Neticonazole]	23.6 ± 1.8	21.4 ± 9.5	
-4.75 ± 8.2	-44.3 ± 3.7	C=CCOC(=O)/C=C\C(=O)OCC=C [Diprop-2-en-1-yl (2Z)-but-2-enedioate]	3.9 ± 6.8	23.7 ± 6.3	
3.76 ± 20	54.5	O=C(O)CCCCCCCCC(=O)O [Decanedioic acid]	0.59 ± 6	5.23 ± 4.5	
9.47 ± 3	2.33 ± 4	COc1ccc(C(=O)c2ccc(C)cc2)c(O)c1 [Mexenone]	10.8 ± 9.8	28 ± 31	
3.95 ± 6.8	-5.45 ± 4.8	CCCCCCCC/C=C\CCCCCCCC(=O)N(C)CC(=O)O [Oleyl sarcosine]	0	-5.73 ± 8.1	
0.13 ± 15	-6.72 ± 6	CC(C)CC(NC(=O)OCC1c2ccccc2-c2ccccc21)C(=O)O (stereo in doubt) [N-(9-Fluorenylmethoxycarbonyl)-L-leucine]	6.39 ± 11	65 ± 53	
20.7 ± 22	42.2 ± 21	C#CCN(C)CCCOc1ccc(Cl)cc1Cl [Clorgyline hydrochloride]	0	43.6 ± 25	
0	-37 ± 6.3	CO[C@@]12[C@H](COC(N)=O)C3=C(C(=O)C(C)=C(N)C3=O)N1C[C@@H]1N[C@@H]12 [Mitomycin C]	12.9 ± 11	17.2 ± 24	
90.6 ± 13	17.7 ± 6	Cc1c(C)n(Cc2ccccc2)c2ccc(C(=O)OCCN(C)C)cc12 [Indocate]	17 ± 9.1	22.8 ± 4.9	28.7 ± 6.6 µM
168 ± 11	18 ± 19	CCCCCCCCCCCC(=O)NCCCN(C)C [N-[3-(Dimethylamino)propyl]dodecanamide]	36.3 ± 13	4.32 ± 44	42.1 ± 9.5 µM
50.2 ± 3.4	-1.8 ± 3.1	O=c1cc(-c2ccccc2)oc2ccccc12 [Flavone]	3.56 ± 6.2	27 ± 10	
26.2 ± 4.5	-35 ± 6.8	Nc1ccc(/N=N/c2ccccc2)c(N)n1 [Phenazopyridine hydrochloride]	51.3 ± 29	35.5 ± 17	66.8 ± 15 µM
56.7 ± 8.3	-2.83 ± 4.9	CC(C(=O)O)c1ccc(/C=C2\CCCCC2=O)cc1 (stereo not given) [Pelubiprofen]	0	-2.46 ± 29	
58.9 ± 23	-19.7 ± 9.4	CC(C)(C)OC(=O)c1ccc(O)cc1 [tert-Butyl 4-hydroxybenzoate]	0	28.1 ± 9.8	
65.7 ± 12	1.83 ± 9.7	Clc1ccc(C(Cn2ccnc2)OCc2c(Cl)cccc2Cl)c(Cl)c1 (stereo not given) [Isoconazole]	8.24 ± 7.5	15 ± 17	13.1 ± 0.89 µM
-8.69 ± 25	13.2 ± 15	COC(=O)Nc1nc2cc([S+]([O-])c3ccccc3)ccc2[nH]1 (stereo not given) [Oxfendazole]	2.33 ± 4	0	
109 ± 17	-45.7 ± 16	CCCCCCCCCCCCN(CCO)CCO [Lauryldiethanolamine]	30.1 ± 14	-12.7 ± 56	
1.96 ± 25	-8.26 ± 7.2	Clc1ccc(C(Cn2ccnc2)OCc2ccc(Sc3ccccc3)cc2)c(Cl)c1 (stereo not given) [Fenticonazole nitrate]	3.64 ± 6.3	51.9 ± 25	
-7.88 ± 7	-30.8 ± 9.8	Cc1cccc(N(C)C(=S)Oc2ccc3c(c2)C2CCC3C2)c1 (stereo not given) [Tolciclate]	22.4 ± 2.8	46.5 ± 33	
-8.37 ± 1.2	-39.2 ± 4.3	NC(=O)N/N=C/c1ccc([N+](=O)[O-])o1 [Nitrofurazone]	0	37 ± 47	
54.8 ± 7.6	-2.83 ± 4.9	CC(C)NC(=O)c1ccc(C=O)cc1 [N-isopropyl-4-formylbenzamide]	29.6 ± 51	32.9 ± 39	
